Target: T1, N-terminal HiBiT tagged BCL6 (Homo sapiens, UniProt P41182)
T1 construct: expressed in transfected cells; host or cells: HT1080 (ATCC CCL-121), stably transduced with lentivirus pLV-UBC-N-HiBiT-BCL6-PGK-puro
Assay: HiBiT based degradation assay
Type: cell-based
Details: HT1080 cells expressing N-terminal HiBiT tagged BCL6, 5 hours of incubation; for Ymin (5 hr): BCL6 degradation normalized with DMSO control; for DC50: four-parameter logistic model, read-out: EC50 (5 hr)
Method in brief: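 Degradation measured by luminescence from the Nano-Glo HiBiT lytic reagent (15 min, room temperature), normalized to DMSO controls and fitted to a four-parameter curve.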

Row | SMILES | Ymin (5 hr) | DC50
1 | CNC(=O)COc1cc2cc(Nc3nc(N4CC5(CC[C@H](Nc6ccc7c(C8CCC(=O)NC8=O)nn(C)c7c6)[C@@H](C)C5)C4)ncc3Cl)cnc2n(C(C)C)c1=O (relative stereo) [Compound 180c, rel-2-((6-((5-chloro-2-((6S,7S)-7-((3-(2,6-dioxopiperidin-3-yl)-1-methyl-1H-indazol-6-yl)amino)-6-methyl-2-azaspiro[3.5]nonan-2-yl)pyrimidin-4-yl)amino)-1-isopropyl-2-oxo-1,2-dihydro-1,8-naphthyridin-3-yl)oxy)-N-methylacetamide] | ++++ (Ymin < 30%) | < 0.01 µM
2 | CNC(=O)COc1cc2cc(Nc3nc(N4CC5(CC(Oc6ccc7c(C8CCC(=O)NC8=O)nn(C)c7c6)C5)C4)ncc3Cl)cnc2n(C(C)C)c1=O (centres unmarked) [Compound 213, 2-[[6-[[5-chloro-2-[6-[3-(2,6-dioxo-3-piperidyl)-1-methyl-indazol-6-yl]oxy-2-azaspiro[3.3]heptan-2-yl]pyrimidin-4-yl]amino]-1-isopropyl-2-oxo-1,8-naphthyridin-3-yl]oxy]-N-methyl-acetamide] | ++++ (Ymin < 30%) | < 0.01 µM
3 | CNC(=O)COc1cc2cc(Nc3nc(N4CCC([C@@](C)(O)C5CCN(c6ccc7c(C8CCC(=O)NC8=O)nn(C)c7c6)CC5)CC4)ncc3Cl)cnc2n(C(C)C)c1=O (single isomer, unassigned) [Compound 201a] | ++ (50% ≤ Ymin < 70%) | < 0.01 µM
4 | CNC(=O)COc1cc2cc(Nc3nc(N4CCN(C[C@@H]5CCN(c6ccc7c(C8CCC(=O)NC8=O)nn(C)c7c6)C5)[C@H](C)C4)ncc3Cl)cnc2n(C(C)C)c1=O (stereo partly drawn) [Compound 216d, 2-[[6-[[5-chloro-2-[(3R)-4-[[(3S)-1-[3-(2,6-dioxo-3-piperidyl)-1-methyl-indazol-6-yl]pyrrolidin-3-yl]methyl]-3-methyl-piperazin-1-yl]pyrimidin-4-yl]amino]-1-isopropyl-2-oxo-1,8-naphthyridin-3-yl]oxy]-N-methyl-acetamide] | +++ (30% ≤ Ymin < 50%) | < 0.01 µM
5 | CNC(=O)COc1cc2cc(Nc3nc(N4CC5(CC[C@@H](Nc6ccc7c(C8CCC(=O)NC8=O)nn(C)c7c6)[C@@H](C)C5)C4)ncc3Cl)cnc2n(C)c1=O (single isomer, unassigned) [Compound 156c] | ++++ (Ymin < 30%) | < 0.01 µM
6 | CNC(=O)COc1cc2cc(Nc3nc(N4CC[C@H](CN5CCN(c6cccc7c(C8CCC(=O)NC8=O)nn(C)c67)CC5)[C@@H](C)C4)ncc3Cl)cnc2n(C(C)C)c1=O (stereo partly drawn) [Compound 177d, 2-((6-((5-chloro-2-((3R,4S)-4-((4-(3-(2,6-dioxopiperidin-3-yl)-1-methyl-1H-indazol-7-yl)piperazin-1-yl)methyl)-3-methylpiperidin-1-yl)pyrimidin-4-yl)amino)-1-isopropyl-2-oxo-1,2-dihydro-1,8-naphthyridin-3-yl)oxy)-N-methylacetamide] | ++++ (Ymin < 30%) | 0.01 to 0.1 µM
7 | CNC(=O)COc1cc2cc(Nc3nc(N4CCC(CN5CCN(c6cccc7c(C8CCC(=O)NC8=O)nn(C)c67)C[C@@H]5C)CC4)ncc3F)cnc2n(C(C)C)c1=O (stereo partly drawn) [Compound 188b, 2-[[6-[[2-[4-[[(2S)-4-[3-(2,6-dioxo-3-piperidyl)-1-methyl-indazol-7-yl]-2-methyl-piperazin-1-yl]methyl]-1-piperidyl]-5-fluoro-pyrimidin-4-yl]amino]-1-isopropyl-2-oxo-1,8-naphthyridin-3-yl]oxy]-N-methyl-acetamide] | ++++ (Ymin < 30%) | 0.01 to 0.1 µM
8 | CNC(=O)COc1cc2cc(Nc3nc(N4CCC5(CC4)CC(N4CCN(c6cccc7c(C8CCC(=O)NC8=O)nn(C)c67)CC4)C5)ncc3Cl)cnc2n(C(C)C)c1=O (centres unmarked) [Compound 230, 2-[[6-[[5-chloro-2-[2-[4-[3-(2,6-dioxo-3-piperidyl)-1-methyl-indazol-7-yl]piperazin-1-yl]-7-azaspiro [3.5]nonan-7-yl]pyrimidin-4-yl]amino]-1-isopropyl-2-oxo-1,8-naphthyridin-3-yl]oxy]-N-methyl-acetamide] | +++ (30% ≤ Ymin < 50%) | 0.01 to 0.1 µM
9 | CNC(=O)COc1cc2cc(Nc3nc(N4CCC(CN5CCN(c6ccc7c(C8CCC(=O)NC8=O)nn(C)c7c6)C[C@H]5C)CC4)ncc3Cl)cnc2n(C(C)C)c1=O (stereo partly drawn) [Compound 215a, 2-((6-((5-chloro-2-(4-(((2R)-4-(3-(2,6-dioxopiperidin-3-yl)-1-methyl-1H-indazol-6-yl)-2-methylpiperazin-1-yl)methyl)piperidin-1-yl)pyrimidin-4-yl)amino)-1-isopropyl-2-oxo-1,2-dihydro-1,8-naphthyridin-3-yl)oxy)-N-methylacetamide] | +++ (30% ≤ Ymin < 50%) | < 0.01 µM
10 | CNC(=O)COc1cc2cc(Nc3nc(N4CC[C@@H](CNc5ccc6c(C7CCC(=O)NC7=O)nn(C)c6c5)C4)ncc3Cl)cnc2n(C)c1=O (stereo partly drawn) [Compound 123b, 2-((6-((5-chloro-2-((3S)-3-(((3-(2,6-dioxopiperidin-3-yl)-1-methyl-1H-indazol-6-yl)amino)methyl)pyrrolidin-1-yl)pyrimidin-4-yl)amino)-1-methyl-2-oxo-1,2-dihydro-1,8-naphthyridin-3-yl)oxy)-N-methylacetamide] | ++++ (Ymin < 30%) | < 0.01 µM
11 | CNC(=O)COc1cc2cc(Nc3nc(N4CC5(CC[C@@H](Nc6ccc7c(C8CCC(=O)NC8=O)nn(C)c7c6)[C@H](C)C5)C4)ncc3Cl)cnc2n(C(C)C)c1=O (relative stereo) [Compound 180d, rel-2-((6-((5-chloro-2-((6R,7R)-7-((3-(2,6-dioxopiperidin-3-yl)-1-methyl-1H-indazol-6-yl)amino)-6-methyl-2-azaspiro[3.5]nonan-2-yl)pyrimidin-4-yl)amino)-1-isopropyl-2-oxo-1,2-dihydro-1,8-naphthyridin-3-yl)oxy)-N-methylacetamide] | ++++ (Ymin < 30%) | < 0.01 µM
12 | CNC(=O)COc1cc2cc(Nc3nc(N4CCC(CN5C[C@@H]6C[C@H]5CN6c5cccc6c(C7CCC(=O)NC7=O)nn(C)c56)CC4)ncc3Cl)cnc2n(C(C)C)c1=O (stereo partly drawn) [Compound 175b, 2-[[6-[[5-chloro-2-[4-[[(1S,4S)-5-[3-(2,6-dioxo-3-piperidyl)-1-methyl-indazol-7-yl]-2,5-diazabicyclo[2.2.1]heptan-2-yl]methyl]-1-piperidyl]pyrimidin-4-yl]amino]-1-isopropyl-2-oxo-1,8-naphthyridin-3-yl]oxy]-N-methyl-acetamide] | +++ (30% ≤ Ymin < 50%) | < 0.01 µM
13 | CNC(=O)COc1cc2cc(Nc3nc(N4CC[C@H](CN5CCN(c6ccc7c(C8CCC(=O)NC8=O)nn(C)c7c6)CC5)[C@H](C)C4)ncc3Cl)cnc2n(C(C)C)c1=O (stereo partly drawn) [Compound 176a, 2-((6-((5-chloro-2-((3S,4S)-4-((4-(3-(2,6-dioxopiperidin-3-yl)-1-methyl-1H-indazol-6-yl)piperazin-1-yl)methyl)-3-methylpiperidin-1-yl)pyrimidin-4-yl)amino)-1-isopropyl-2-oxo-1,2-dihydro-1,8-naphthyridin-3-yl)oxy)-N-methylacetamide] | +++ (30% ≤ Ymin < 50%) | < 0.01 µM

Source: US20260241012A1, “1,8-NAPHTHYRIDIN-2-ONE HETEROBIFUNCTIONAL BCL6 DEGRADERS” (Treeline Biosciences, Inc., priority 2022, published 2026)
